We go through three compounds from patent publication US7273846B2, “Selective melanin-concentrating hormone type-1 receptor agonists” (priority 2002, dated 2007).

Test [1] addresses T1, MCH-1R (Homo sapiens, UniProt Q99705).
Description: (§3) For transient expression, COS-7 cells were cultured in Dulbecco's modified Eagle medium (Gibco BRL, Rockville, Md.) with 10% heat inactivated fetal calf serum.
(§4) A suspension of 7×10^6 COS-7 cells were transfected with 20 μg of pCI-neo/MCH-2R plasmid by electroporation and cells were harvested after 60-72 hours. Membranes were prepared from transient and stable transfectants by hypotonic lysis, frozen in liquid nitrogen, and stored at −80° C.
(§5) Assays were optimized with respect to membrane preparations: for CHO/MCH-1R membranes, 1 μg of membranes per well yielded a>6× specific binding window and for COS or CHO MCH-2R membranes, 8 μg of membrane protein yielded a window of about 3×.
(§6) Specific binding is defined as the difference between total binding and non-specific binding conducted in the presence of 500 nM unlabeled hMCH. […] After equilibrating at room temperature for 3 hours, the plates were read in a TopCount (Packard, Meriden, Conn.). IC50 calculations were performed using Prism 3.0 (GraphPad. Software, San Diego, Calif.). The IC50 values were measured in three different experiments.
Test [2] concerns the target T1, MCH-1R. Put plainly: biochemical.
Description: as §3, §4, §5, §6
For test [3], the target named is T1, MCH-1R. Put plainly: Aequorin bioluminescence functional assay, 293AEQ17/MCH-1R cells. It counts as cell-based. Also noted: expressed in transfected cells. The conditions noted are these: for MCH-1R Activation %: human MCH = 100, activation at 10 μM concentration. How it is done:
(§1) The aequorin bioluminescence assay is a reliable test for identifying G-protein-coupled receptors that couple through the G protein subunit family consisting of Gq and G11. Gq and G11 coupling leads to the activation of phospholipase C, mobilization of intracellular calcium, and activation of protein kinase C.
Stable cell lines expressing either the MCH-1R or the MCH-2R and the aequorin reporter protein were used. The assay was performed using a Luminoskan RT luminometer (Labsystems Inc., Gaithersburg, Md.) controlled by custom software written for a Macintosh PowerPC 6100.
(§2) The cells were harvested, washed once in ECB medium, and resuspended to 500,000 cells/mL. 100 μL of cell suspension (corresponding to 5×10^4 cells) was then injected into the test plate containing the hMCH peptides, and the integrated light emission was recorded over 30 seconds, in 0.5-s units. 20 μL of lysis buffer (0.1% final Triton X-100 concentration) was then injected and the integrated light emission recorded over 10 seconds, in 0.5-s units. The “fractional response” values for each well were calculated by taking the ratio of the integrated response to the initial challenge to the total integrated luminescence including the Triton X-100 lysis response.

The target of test [4] is T2, MCH-2R (Homo sapiens, UniProt Q969V1). Put plainly: Aequorin bioluminescence functional assay, 293AEQ17/MCH-2R cells. In kind it is cell-based. The conditions noted are these: for MCH-2R Activation %: human MCH = 100. Also noted: expressed in transfected cells; MCH-2R Activation %: concentration or dose not given beside the values.
Description: as §1
Stable cell lines expressing either the MCH-1R or the MCH-2R and the aequorin reporter protein were used.
as §2

The target in test [5] is T2, MCH-2R. Put plainly: Radioligand binding assay (SPA), MCH-2R.
Description: as §3, §4, §5, §6

Residues, ends and D or L forms follow the SMILES beside them.

T2 sequence (Q969V1 whole entry): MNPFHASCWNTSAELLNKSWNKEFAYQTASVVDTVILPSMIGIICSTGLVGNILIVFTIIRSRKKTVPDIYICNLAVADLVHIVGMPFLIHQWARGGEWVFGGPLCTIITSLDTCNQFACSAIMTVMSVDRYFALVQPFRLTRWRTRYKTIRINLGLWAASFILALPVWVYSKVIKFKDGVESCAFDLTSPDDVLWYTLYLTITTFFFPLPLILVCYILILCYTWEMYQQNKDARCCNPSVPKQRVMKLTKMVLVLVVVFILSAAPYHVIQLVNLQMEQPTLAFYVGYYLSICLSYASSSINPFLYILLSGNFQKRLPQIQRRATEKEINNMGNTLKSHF
T1 sequence (Q99705 whole entry): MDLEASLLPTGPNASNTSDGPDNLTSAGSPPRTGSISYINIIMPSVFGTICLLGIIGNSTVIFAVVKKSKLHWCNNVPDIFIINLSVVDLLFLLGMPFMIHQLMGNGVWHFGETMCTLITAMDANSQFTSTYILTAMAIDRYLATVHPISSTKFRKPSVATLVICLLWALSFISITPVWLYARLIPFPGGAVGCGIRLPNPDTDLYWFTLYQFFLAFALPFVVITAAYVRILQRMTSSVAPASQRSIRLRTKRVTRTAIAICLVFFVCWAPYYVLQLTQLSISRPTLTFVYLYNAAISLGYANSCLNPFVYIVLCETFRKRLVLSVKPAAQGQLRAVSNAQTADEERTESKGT

For `CSCC[C@@H]1NC(=O)[C@@H](NC(=O)[C@@H](CCCCN)NC(C)=O)CSSC[C@@H](C(N)=O)NC(=O)[C@@H]2CCCN2C(=O)[C@H](CCCNC(=N)N)NC(=O)[C@H](Cc2ccc(O)cc2)NC(=O)[C@H](C(C)C)NC(=O)[C@H](CCCNC(=N)N)NC(=O)CNC(=O)[C@H](CC(C)C)NC1=O` [SEQ. ID. NO. 13], the “Selectivity 2/1 (MCH-2R/MCH-1R IC50 binding ratio)” value in test [1] is on record as 3800. This compound also yielded a 50% inhibitory concentration (IC50) in test [2] of 0.3 nM. Further, in test [3], the “Selectivity 2/1 (MCH-2R/MCH-1R EC50 activity ratio)” value is 22 and the “MCH-1R Activation %” value worked out at 130%. Further, the “MCH-2R Activation %” value in test [4] was 55%.

As to `CSCC[C@@H]1NC(=O)[C@@H](NC(=O)[C@H](CCCNC(=N)N)NC(C)=O)CSSC[C@@H](C(N)=O)NC(=O)[C@@H]2CCCN2C(=O)[C@H](CCCNC(=N)N)NC(=O)[C@H](Cc2ccc(O)cc2)NC(=O)[C@H](C(C)C)NC(=O)[C@H](CCCNC(=N)N)NC(=O)[C@H](Cc2ccccc2)NC(=O)[C@H](CC(C)C)NC1=O` [SEQ. ID. NO. 20] (HELM PEPTIDE1{[ac].R.C.M.L.F.R.V.Y.R.P.C.[am]}$PEPTIDE1,PEPTIDE1,3:R3-12:R3$$$V2.0), in test [1], the “Selectivity 2/1 (MCH-2R/MCH-1R IC50 binding ratio)” value was 19. The IC50 in test [2] amounted to 0.1 nM. Also, in test [3], the “Selectivity 2/1 (MCH-2R/MCH-1R EC50 activity ratio)” value is 0.75 and the “MCH-1R Activation %” value came to 75%. In addition, the EC50 in test [3] (aequorin, 293AEQ17/MCH-1R cells, read-out: MCH-1R EC50) stood at 66 nM. For the same compound, in test [4], the “MCH-2R Activation %” value was found to be 88%. In test [5] (MCH-2R IC50, [125I]-[Phe13,Tyr19]-hMCH SPA, COS or CHO MCH-2R membranes), this compound had an IC50 of 1.9 nM.

Regarding `CSCC[C@@H]1NC(=O)[C@@H](NC(=O)[C@H](N)CCCNC(=N)N)CSSC[C@@H](C(N)=O)NC(=O)[C@@H]2CCCN2C(=O)[C@H](CCCNC(=N)N)NC(=O)[C@H](Cc2ccc(O)cc2)NC(=O)[C@H](C(C)C)NC(=O)[C@H](CCCNC(=N)N)NC(=O)CNC(=O)[C@H](CC(C)C)NC1=O` [SEQ. ID. NO. 4], in test [1], the “binding to hMCH-1R in words” value was “equipotent to Ac-hMCH(6-16)-NH2” and the “Selectivity 2/1 (MCH-2R/MCH-1R IC50 binding ratio)” value is recorded as 130. For the same compound, half-maximal inhibition in test [2] (IC50) was put at 35 nM. Besides, in test [3], the “Selectivity 2/1 (MCH-2R/MCH-1R EC50 activity ratio)” value was 0.5 and the “MCH-1R Activation %” value was 130%. The EC50 in test [4] (aequorin, 293AEQ17/MCH-2R cells) was determined as 55 nM. Besides, the “MCH-2R Activation %” value in test [4] stood at 83%. Further, the “fold weaker binding at hMCH-2R” value in test [5] (relative to Ac-hMCH(6-16)-NH2) is “more than 10 fold”.
